From patent publication US20240109900A1, “AZABICYCLIC SHP2 INHIBITORS” (IRBM S.P.A., priority 2021, published 2024)

Key:
[1] = biological target: SHP-2 enzyme (Met1-Leu525) (Homo sapiens (Human), UniProt Q06124); test: SHP2 inhibition enzymatic assay; assay type: biochemical; conditions: 0.5 nM SHP-2 activated by 500 nM IRS1 peptide, 75 μM DiFMUP substrate; read-out: SHP2wt-IC50
Description: The assay was performed as described in YP Chen et al, Nature (535)2016. Assay volume of 20 μL/well was assembled in 384 well black polystyrene low-binding microplates (Greiner), using the following buffer: 60 mM HEPES pH 7.2, 75 mM NaCl, 75 mM KCl, 1 mM EDTA pH 8, 0.05% tween-20, 5 mM DTT. The SHP-2 enzyme (synthetized by Origene, Met1-Leu525, cat #TP750155) was used at a final concentration of 0.5 nM. The enzyme was activated by 500 nM IRS1 peptide (sequence: H2N-LN(pY)IDLDLV(dPEG8)LST(pY)ASINFQK-amide SEQ ID No. 1) and incubated with 75 μM DiFMUP (Sigma) as substrate.
Briefly, DMSO serially diluted testing compounds were transferred to the bottom of the assay plate. SHP2 was then added together with the IRS1 peptide. 30 min post incubation, the DiFMUP substrate was added to the reaction and incubated 30 min at room temperature. Finally 5 μL of 160 μM bpV (Potassium bisperoxo[1,10-phenanthroline]oxovanadate [V], Sigma) were added to stop and quench the reaction. The fluorescence was detected by a microplate reader (Envision, PerkinElmer) according to the DiFMUP excitation and emission wavelength. The lower the fluorescence the higher the SHP2 inhibition. […] The percentage inhibition is fitted against the compound dilutions with a four-parameter logistic regression. The inflection point (i.e. the concentration at which half-maximal inhibition is achieved) is the IC50.

[2] = system: ERK phosphorylation in KYSE-520 cells; test: Phospho-ERK cellular assay; assay type: cell-based; conditions: Homo sapiens, KYSE-520, 2 h, KYSE-520 cells, 2 h at 37° C., phospho-ERK1/2 (Thr202/Tyr204) TR-FRET; read-out: PERK IC50
Description: ERK phosphorylation was detected using the “Advanced phospho-ERK1/2 (Thr202/Tyr204)” TR-FRET kit (Cisbio, Cat #64AERPEG/H), following the manufacturer reagents and instructions.
Briefly, 20.000/well KYSE-520 cells (DSMZ ACC 371) were plated in 6 μL RPMI-1640 (Invitrogen) growth medium, into 384 white low-volume high base TC microplates (Greiner). After an overnight incubation, cells were treated with DMSO serial diluted compounds and incubated for 2 h at 37° C. After incubation, 2 μL/well of 4×Lysis Buffer (Cisbio 64KL1FDF), were added and incubated with cells for 30 min on gentle shaking. Finally, lysates were added with 2 μL/well of Eu cryptate (donor) and D2 (acceptor) conjugated antibodies (as provided by the Cisbio kit #64AERPEG/H) diluted 1:100 in Detection Buffer (as provided by the Cisbio kit #64AERPEG/H). Plates were then sealed and incubated at room temperature in the dark. After an overnight incubation, the TR-FRET signal was detected on a suitable reader (Envision, PerkinElmer). The lower the TR-FRET signal the higher the higher the SHP2 inhibition in cells.
The activity of each compound dilution was calculated as percentage between vehicle DMSO treated cells and no cells, 0% inhibition and 100% inhibition respectively. The percentage activity is fitted against the compound dilutions with a four-parameter logistic regression. The inflection point (i.e. the concentration at which half-maximal inhibition is achieved) is the IC50.

Chain of SHP-2 enzyme (Met1-Leu525) (Q06124 1-525): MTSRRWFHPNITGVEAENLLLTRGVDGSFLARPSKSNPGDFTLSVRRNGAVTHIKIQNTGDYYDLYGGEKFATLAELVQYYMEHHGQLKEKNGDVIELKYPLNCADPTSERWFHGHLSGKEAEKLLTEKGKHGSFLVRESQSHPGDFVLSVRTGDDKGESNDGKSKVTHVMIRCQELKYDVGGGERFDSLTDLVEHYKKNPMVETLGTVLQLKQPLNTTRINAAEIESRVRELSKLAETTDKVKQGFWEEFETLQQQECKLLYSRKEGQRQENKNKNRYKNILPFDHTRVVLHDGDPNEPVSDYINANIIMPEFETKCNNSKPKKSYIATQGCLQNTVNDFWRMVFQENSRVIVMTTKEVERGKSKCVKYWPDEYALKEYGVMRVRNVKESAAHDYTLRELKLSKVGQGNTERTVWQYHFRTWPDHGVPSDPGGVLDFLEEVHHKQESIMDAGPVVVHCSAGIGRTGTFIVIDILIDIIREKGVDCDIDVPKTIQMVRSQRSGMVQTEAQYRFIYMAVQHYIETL

| IC50 [1] | IC50 [2] | SMILES |
| --- | --- | --- |
| < 500 nM | < 1000 nM | NC[C@@]1(c2ccccc2F)C2CCN(c3ccc4nc(Sc5ccnc(N)c5Cl)ccc4n3)CC21 (stereo in doubt) [Example 387, 4-((6-((1R,6S,7S)-7-(aminomethyl)-7-(2-fluorophenyl)-3-azabicyclo[4.1.0]heptan-3-yl)-1,5-naphthyridin-2-yl)thio)-3-chloropyridin-2-amine] |
| < 500 nM | > 5000 nM | Cc1nc(N2CCC3C(C2)C3(CN)c2ccsc2)c(CO)nc1-c1cccc(Cl)c1Cl (centres unmarked) [Example 1, [3-[7-(aminomethyl)-7-(thiophen-3-yl)-3-azabicyclo[4.1.0]heptan-3-yl]-6-(2,3-dichlorophenyl)-5-methylpyrazin-2-yl]methanol] |
| < 500 nM | < 1000 nM | NCC1(c2cccnc2)C2CCN(c3cnc4c(-c5cccc(Cl)c5Cl)n[nH]c4n3)CC21 (centres unmarked) [Example 2, [3-[3-(2,3-dichlorophenyl)-1H-pyrazolo[3,4-b]pyrazin-6-yl]-7-(pyridin-3-yl)-3-azabicyclo[4.1.0]heptan-7-yl]methanamine] |
| < 500 nM | < 1000 nM | NCC1(c2ccccc2F)C2CCN(c3cnc4c(-c5cccc(Cl)c5Cl)n[nH]c4n3)CC21 (centres unmarked) [Example 3, (3-(3-(2,3-dichlorophenyl)-1H-pyrazolo[3,4-b]pyrazin-6-yl)-7-(2-fluorophenyl)-3-azabicyclo[4.1.0]heptan-7-yl)methanamine] |
| < 500 nM | 1000 to 5000 nM | NCC1(c2ccccc2F)C2CCN(c3cnc4c(-c5cccc6ccsc56)n[nH]c4n3)CC21 (centres unmarked) [Example 4, (3-(3-(benzo[b]thiophen-7-yl)-1H-pyrazolo[3,4-b]pyrazin-6-yl)-7-(2-fluorophenyl)-3-azabicyclo[4.1.0]heptan-7-yl)methanamine] |
|  | < 1000 nM | NCC1(c2ccccc2F)C2CCN(c3cc4nc(Sc5ccnc(N)c5Cl)cnc4[nH]3)CC21 (centres unmarked) [Example 59, 4-((6-(7-(aminomethyl)-7-(2-fluorophenyl)-3-azabicyclo[4.1.0]heptan-3-yl)-5H-pyrrolo[2,3-b]pyrazin-2-yl)thio)-3-chloropyridin-2-amine] |
|  | < 1000 nM | Cc1cc([C@@]2(CN)[C@@H]3CCN(c4cnc5c(-c6cccc(-c7ncco7)c6Cl)n[nH]c5n4)C[C@@H]32)no1 [Example 111, ((1S,6R,7S)-3-(3-(2-chloro-3-(oxazol-2-yl)phenyl)-1H-pyrazolo[3,4-b]pyrazin-6-yl)-7-(5-methylisoxazol-3-yl)-3-azabicyclo[4.1.0]heptan-7-yl)methanamine] |
|  | < 1000 nM | Cc1cc(C(N)=O)ncc1-c1n[nH]c2nc(N3CC[C@@H]4[C@H](C3)[C@@]4(CN)c3ccccc3F)cnc12 [Example 307, 5-(6-((1S,6R,7R)-7-(aminomethyl)-7-(2-fluorophenyl)-3-azabicyclo[4.1.0]heptan-3-yl)-1H-pyrazolo[3,4-b]pyrazin-3-yl)-4-methylpicolinamide] |
|  | < 1000 nM | Cc1c(-c2n[nH]c3nc(N4CC[C@@H]5[C@H](C4)[C@@]5(CN)c4cc(F)cc(F)c4)cnc23)ccc2nn(C)cc12 [Example 308, ((1S,6R,7R)-7-(3,5-difluorophenyl)-3-(3-(2,4-dimethyl-2H-indazol-5-yl)-1H-pyrazolo[3,4-b]pyrazin-6-yl)-3-azabicyclo[4.1.0]heptan-7-yl)methanamine] |
|  | > 5000 nM | N#CNC(=O)c1ccc(-c2n[nH]c3nc(N4CC[C@@H]5[C@H](C4)[C@@]5(CN)c4ccccc4F)cnc23)c(Cl)c1 [Example 310, 4-(6-((1S,6R,7R)-7-(aminomethyl)-7-(2-fluorophenyl)-3-azabicyclo[4.1.0]heptan-3-yl)-1H-pyrazolo[3,4-b]pyrazin-3-yl)-3-chloro-N-cyanobenzamide] |
|  | < 1000 nM | NC[C@]1(c2ccccc2F)[C@@H]2CCN(c3cnc4c(-c5ccc(-c6cc(F)c(O)c(F)c6)cc5Cl)n[nH]c4n3)C[C@@H]21 [Example 313, 4′-(6-((1S,6R,7R)-7-(aminomethyl)-7-(2-fluorophenyl)-3-azabicyclo[4.1.0]heptan-3-yl)-1H-pyrazolo[3,4-b]pyrazin-3-yl)-3′-chloro-3,5-difluoro-[1,1′-biphenyl]-4-ol] |
|  | > 5000 nM | NC[C@]1(c2ccccc2F)[C@@H]2CCN(c3cnc4c(-c5ccc(CC(N)=O)cc5Cl)n[nH]c4n3)C[C@@H]21 [Example 328, 2-(4-(6-((1S,6R,7R)-7-(aminomethyl)-7-(2-fluorophenyl)-3-azabicyclo[4.1.0]heptan-3-yl)-1H-pyrazolo[3,4-b]pyrazin-3-yl)-3-chlorophenyl)acetamide] |
|  | > 5000 nM | NC[C@]1(c2ccccc2F)[C@@H]2CCN(c3nc4nc(Sc5ccnc(-n6cccn6)c5Cl)cnc4[nH]3)C[C@@H]21 [Example 342, ((1S,6R,7R)-3-(5-((3-chloro-2-(1H-pyrazol-1-yl)pyridin-4-yl)thio)-1H-imidazo[4,5-b]pyrazin-2-yl)-7-(2-fluorophenyl)-3-azabicyclo[4.1.0]heptan-7-yl)methanamine] |
|  | < 1000 nM | CC(C)(C)C#Cc1n[nH]c2nc(N3CC[C@@H]4[C@H](C3)[C@@]4(CN)c3ccccc3F)cnc12 [Example 366, ((1S,6R,7R)-3-(3-(3,3-dimethylbut-1-yn-1-yl)-1H-pyrazolo[3,4-b]pyrazin-6-yl)-7-(2-fluorophenyl)-3-azabicyclo[4.1.0]heptan-7-yl)methanamine] |
|  | > 5000 nM | NC[C@]1(c2ccccc2F)[C@@H]2CCN(c3cnc4c(-c5ccc(-c6nsc(O)n6)cc5Cl)n[nH]c4n3)C[C@@H]21 [Example 379, 3-(4-(6-((1S,6R,7R)-7-(aminomethyl)-7-(2-fluorophenyl)-3-azabicyclo[4.1.0]heptan-3-yl)-1H-pyrazolo[3,4-b]pyrazin-3-yl)-3-chlorophenyl)-1,2,4-thiadiazol-5-ol] |
|  | < 1000 nM | NC[C@]1(c2ccsn2)[C@@H]2CN(c3cnc4c(-c5ccc6nn(C(F)F)cc6c5Cl)n[nH]c4n3)C[C@@H]21 [Example 468, ((1R,5S,6r)-3-(3-(4-chloro-2-(difluoromethyl)-2H-indazol-5-yl)-1H-pyrazolo[3,4-b]pyrazin-6-yl)-6-(isothiazol-3-yl)-3-azabicyclo[3.1.0]hexan-6-yl)methanamine] |
|  | < 1000 nM | Cc1csc([C@@]2(CN)[C@@H]3CCN(c4cnc5c(-c6ccc(F)c7ncccc67)c[nH]c5n4)C[C@@H]32)n1 [Example 502, ((1S,6R,7S)-3-(7-(8-fluoroquinolin-5-yl)-5H-pyrrolo[2,3-b]pyrazin-3-yl)-7-(4-methylthiazol-2-yl)-3-azabicyclo[4.1.0]heptan-7-yl)methanamine] |
|  | < 1000 nM | Cc1csc([C@@]2(CN)[C@@H]3CN(c4cnc5c(-c6ccnc(-n7cccn7)c6Cl)n[nH]c5n4)C[C@@H]32)n1 [Example 516, ((1R,5S,6r)-3-(3-(3-chloro-2-(1H-pyrazol-1-yl)pyridin-4-yl)-1H-pyrazolo[3,4-b]pyrazin-6-yl)-6-(4-methylthiazol-2-yl)-3-azabicyclo[3.1.0]hexan-6-yl)methanamine] |
|  | < 1000 nM | Cc1csc([C@@]2(CN)[C@@H]3CN(c4cnc(Sc5ccnc(-n6cccn6)c5Cl)cn4)C[C@@H]32)n1 [Example 520, ((1R,5S,6r)-3-(5-((3-chloro-2-(1H-pyrazol-1-yl)pyridin-4-yl)thio)pyrazin-2-yl)-6-(4-methylthiazol-2-yl)-3-azabicyclo[3.1.0]hexan-6-yl)methanamine] |
|  | > 5000 nM | Cc1csc([C@@]2(CN)[C@@H]3CN(c4nc(C)n(-c5cccc(Cl)c5Cl)c(=O)c4Cl)C[C@@H]32)n1 [Example 526, 6-((1R,5S,6r)-6-(aminomethyl)-6-(4-methylthiazol-2-yl)-3-azabicyclo[3.1.0]hexan-3-yl)-5-chloro-3-(2,3-dichlorophenyl)-2-methylpyrimidin-4(3H)-one] |
| < 500 nM |  | NC[C@]1(c2cc(F)ccc2F)[C@@H]2CCN(c3cnc4nc(-c5ccc6c(c5)CCC(=O)N6)ccc4n3)C[C@@H]21 [Example 531, 6-(2-((1S,6R,7R)-7-(aminomethyl)-7-(2,5-difluorophenyl)-3-azabicyclo[4.1.0]heptan-3-yl)pyrido[2,3-b]pyrazin-6-yl)-3,4-dihydroquinolin-2(1H)-one] |
